Measurements published in patent US7256204B2, “Amine compounds, their production and use” (Takeda Pharmaceutical Company Limited, priority 1997, dated 2007).
Where a name gives a salt, the structure may show the parent alone.

Columns and labels:
[1] = tested on: mouse; test: Experiment of acute toxicity, oral administration; format: in vivo; conditions: dose of more than 1000 mg/kg
Description: In addition, compounds (I) and (I′) have low toxicity. […] Moreover, compounds (I) and (I′) easily penetrate into the brain following the oral administration.

[2] = tested on: Aβ1-40 production and/or secretion in human neuroblastoma IMR-32 cells; test: Inhibition of amyloid-β protein production in IMR-32 cells, EIA for Aβ1-40; format: cell-based; conditions: test compound 10 μM, 24 hours incubation, effect to inhibit production and/or secretion as percentage relative to the control
Description: (§1) Compounds of the present invention were tested for effect of inhibiting amyloid-β protein production in human neuroblastoma IMR-32 cells. Herein referred to were references, Science, 264, 1336 (1994) and Biochemistry, 34, 10272 (1995), etc.
(§2) IMR-32 cells were cultivated in a flask (Falcon, 750 ml) containing 10% FCS/DMEM medium, in an atmosphere of 10% CO2/90% air, at 37° C. to be in confluence. The cultivated cells were seeded into a 48-well plate in a density of 2.5×10^5 cells/well, and incubated therein for 3 days under the same condition as above. Then, the culture medium was removed through suction.
(§3) A dimethylformamide (DMF) solution containing a test compound was dissolved in 0.5 ml of 0.5% BSA/DMEM, and added to the plate, and the cells were incubated for further 24 hours. As the control, the same volume of DMF but not containing the test compound was dissolved in 0.5 ml of 0.5% BSA/DMEM, and added to the plate. […]
(§4) The plate was washed three times with PBS, and 100 μl of an HRP-labeled secondary antibody (BA-27 antibody or BC-05 antibody labeled with HRP, horseradish peroxidase) as dissolved in a buffer for secondary reaction (20 mM phosphate buffer, pH 7.0; 400 mM NaCl; 2 mM EDTA; 1% BSA) was added thereto. […] Then, using a plate reader (MTP-32 Microplate Reader, by Corona Co.), the sample on the plate was subjected to calorimetric determination (at 450 nm). […]

[3] = tested on: Aβ1-42 production and/or secretion in human neuroblastoma IMR-32 cells; test: Inhibition of amyloid-β protein production in IMR-32 cells, EIA for Aβ1-42; format: cell-based; conditions: test compound 10 μM, 24 hours incubation, effect to inhibit production and/or secretion as percentage relative to the control
Description: as §1, §2, §3, §4

melting point | Structure (SMILES) | also measured
179 to 182 °C | CC(=O)N(Cc1ccc(-c2ccccc2)cc1)c1ccc2c(c1)CCC(CN(C)C)C2.Cl (stereo not shown) | 
229 to 234 °C (dec.) | Cl.c1ccc(C2CCN(CCC3CCc4cc(OCc5ccc6ccccc6c5)ccc4C3)CC2)cc1 (stereo not shown) | 
226 to 228 °C | Cc1ccc(-c2ccc(COc3ccc4c(c3)CCC(CN(C)C)C4)cc2)cc1.Cl (stereo not shown) | 
228 to 229 °C | CN(C)CC1CCc2cc(OCc3ccc4ccccc4c3)ccc2C1.Cl (stereo not shown) | 
234 to 235 °C | CN(C)CC1CCc2cc(OCc3ccc(-c4ccc(C=O)cc4)cc3)ccc2C1.Cl (stereo not shown) | 
235 to 237 °C | CSc1ccc(-c2ccc(COc3ccc4c(c3)CCC(CN(C)C)C4)cc2)cc1.Cl (stereo not shown) | 
223 to 234 °C | CN(C)CC1CCc2cc(OCc3ccc(-c4ccc(F)cc4)cc3)ccc2C1.Cl (stereo not shown) | 
223 to 234 °C | CN(C)CC1CCc2cc(OCc3ccc(-c4cccc([N+](=O)[O-])c4)cc3)ccc2C1.Cl (stereo not shown) | 
207 to 208 °C | COc1cccc(-c2ccc(COc3ccc4c(c3)CCC(CN(C)C)C4)cc2)c1.Cl (stereo not shown) | 
140 to 141 °C | COc1ccccc1-c1ccc(COc2ccc3c(c2)CCC(CN(C)C)C3)cc1.Cl (stereo not shown) | 
196 to 197 °C | CN(C)CC1CCc2cc(OCc3ccc(-c4cc(C(F)(F)F)cc(C(F)(F)F)c4)cc3)ccc2C1.Cl (stereo not shown) | 
222 to 223 °C | CN(C)CC1CCc2cc(OCc3ccc(-c4ccsc4)cc3)ccc2C1.Cl (stereo not shown) | 
227 to 228 °C | CN(C)CC1CCc2cc(OCc3ccc(-c4cccs4)cc3)ccc2C1.Cl (stereo not shown) | 
202 to 203 °C | CN(C)CC1CCc2cc(OCc3ccc(-c4ccccc4C#N)cc3)ccc2C1.Cl (stereo not shown) | 
186 to 190 °C | CN(C)CC1CCc2cc(OCc3cccc(-c4ccccc4)c3)ccc2C1.Cl (stereo not shown) | 
182 to 183 °C | COc1ccc(-c2cccc(COc3ccc4c(c3)CCC(CN(C)C)C4)c2)cc1.Cl (stereo not shown) | 

melting point | Structure (SMILES) | also measured
171 to 172 °C | CN(C)CC1CCc2cc(OCc3cccc(-c4ccc(F)cc4)c3)ccc2C1.Cl (stereo not shown) | 
173 to 174 °C | CN(C)CC1CCc2cc(OCc3ccccc3-c3ccccc3)ccc2C1.Cl (stereo not shown) | 
170 to 171 °C | COc1ccc(-c2ccccc2COc2ccc3c(c2)CCC(CN(C)C)C3)cc1.Cl (stereo not shown) | 
172 to 174 °C | CN(C)CC1CCc2cc(OCc3ccccc3-c3ccc(F)cc3)ccc2C1.Cl (stereo not shown) | 
197 to 199 °C | Cl.c1ccc(-c2ccc(COc3ccc4c(c3)CCC(CCN3CCCC3)C4)cc2)cc1 (stereo not shown) | 
232 to 233 °C | CN(C)CC1CCc2ccc(OCc3ccc(-c4ccccc4)cc3)cc2C1.Cl (stereo not shown) | 
155 to 156 °C | Cl.OC1(O)CCN(CCC2CCc3cc(OCc4ccc(-c5ccccc5)cc4)ccc3C2)CC1 (stereo not shown) | 
175 to 177 °C | CN(C)CCCCC1CCc2cc(OCc3ccc(-c4ccccc4)cc3)ccc2C1.Cl (stereo not shown) | 
201 to 202 °C | CN(C)CC1CCc2ccc(OCc3ccc4ccccc4c3)cc2C1.Cl (stereo not shown) | 
189 to 190 °C | CNCC1CCc2cc(OCc3ccc(-c4ccccc4)cc3)ccc2C1.Cl (stereo not shown) | 
215 to 218 °C (dec.) | Cl.c1ccc2cc(COc3ccc4c(c3)CCC(CN3CCCCC3)C4)ccc2c1 (stereo not shown) | 
164 to 166 °C | CCCN(CCC)CC1CCc2cc(OCc3ccc(-c4ccccc4)cc3)ccc2C1.Cl (stereo not shown) | 
212 to 213 °C | CN(C)CC1CCc2cc(OCc3ccc(-c4cccnc4)cc3)ccc2C1 (stereo not shown) (as salt: hydrochloride) | 
288 to 291 °C | c1ccc(-c2ccc(COc3ccc4c(c3)CCC(CCN3CCC(N5CCCCC5)CC3)C4)cc2)cc1 (stereo not shown) (as salt: hydrochloride) | 
182 to 185 °C | COc1ccc(-c2ccc(COc3ccc4c(c3)CCC(CCN(C)C)C4)cc2)cc1.Cl (stereo not shown) [44] | 
 | CN(C)CCC1CCc2cc(OCc3ccc(-c4ccccc4)cc3)ccc2C1.Cl (stereo not shown) [Example 12, 6-(4-Biphenylyl)methoxy-2-[2-(N,N-dimethylamino)ethyl]tetralin hydrochloride] | acute toxicity (death) [1]: no mouse was dead; Aβ1–40 (%) [2]: 74%; Aβ1–42 (%) [3]: 75%
